In general, IC50 refers to the concentration needed to halve the response being measured.

Positions count from the first letter of the chain named. Read-outs that look alike come from different tables or passages of the source.

We go through eight molecules from paper PMC8252765, “Human Oxygenase Variants Employing a Single Protein Fe^II Ligand Are Catalytically Active” (Angewandte Chemie (International Ed. in English), 2021).

Experiment [1] addresses T1, H679A His6-AspH315-758 (Homo sapiens, UniProt Q12797, H679A).
T1 construct: containing H679A or H725A His6-AspH315-758 variant (0.2 μM); made in house; host or cells: E. coli BL21 (DE3), pET-28a(+)
T1 sequence (Q12797 315-758 H679A): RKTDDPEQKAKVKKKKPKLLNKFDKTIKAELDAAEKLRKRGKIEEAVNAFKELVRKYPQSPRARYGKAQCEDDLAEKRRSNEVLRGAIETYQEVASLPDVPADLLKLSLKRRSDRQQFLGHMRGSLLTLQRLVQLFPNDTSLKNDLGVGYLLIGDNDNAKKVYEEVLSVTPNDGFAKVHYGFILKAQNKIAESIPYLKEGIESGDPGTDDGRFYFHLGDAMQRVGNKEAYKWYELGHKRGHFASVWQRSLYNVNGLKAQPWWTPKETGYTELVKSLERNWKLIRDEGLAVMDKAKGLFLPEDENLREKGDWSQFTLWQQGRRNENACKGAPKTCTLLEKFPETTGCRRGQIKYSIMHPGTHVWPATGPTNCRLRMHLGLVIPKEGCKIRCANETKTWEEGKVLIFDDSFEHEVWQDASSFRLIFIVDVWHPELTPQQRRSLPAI
Briefly: H679A AspH variant SPE-MS inhibition assay. Type of experiment: biochemical.

In experiment [2] the target is T2, H725A His6-AspH315-758 (Homo sapiens, UniProt Q12797, H725A).
T2 construct: containing H679A or H725A His6-AspH315-758 variant (0.2 μM); made in house; host or cells: E. coli BL21 (DE3), pET-28a(+)
T2 sequence (Q12797 315-758 H725A): T1 sequence (Q12797 315-758 H679A) with A365H, H411A
The experiment in a line: H725A AspH variant SPE-MS inhibition assay. Type of experiment: biochemical.

For another experiment, the system named is wt AspH. The conditions noted are these: cited from earlier work.
The target in experiment [3] is T1, H679A His6-AspH315-758. Briefly: Steady-state kinetics of H679A AspH by SPE-MS. The experiment is classed as biochemical. The settings on record: H679A AspH 0.2 μM, parameter for the varied (co)substrate (label), 25 mM HEPES pH 7.5, n=3. As for the experimental part:
Supporting Figure S5. […] Turnover […]
numbers (kapp or k ) and Michaelis constants (Kapp or K ) of the H679A AspH variant were determined in […]
MS (SPE-MS parameters are given i n Section 2 of the Supporting Information ). Conditions: 0.2 μM H679A His6- […]
HEPES (pH 7.5, 20° C). Measurement times were normalized to the first sample injection analysed after the […]
Data are shown as the mean average of three independent runs (n = 3; mean ± standard deviation, SD).
Turnover numbers (kapp or k ) were calculated from the maximum velocities (vapp or v ) values obtained, […]
assuming ideal active site availability as supported by a reported active site titration of wt AspH.[4] […]
substrate in the absence of LAA for the shown Fe(II) concentrations (conditions: 0.2 μM H679A His6-AspH315- […]
substrate in the presence of LAA for the shown Fe(II) concentrations (conditions: 0.2 μM H679A His6-AspH315- […]

Experiment [4] deals with T2, H725A His6-AspH315-758. Briefly: Steady-state kinetics of H725A AspH by SPE-MS. The settings on record: H725A AspH 0.2 μM, parameter for the varied (co)substrate (label), 25 mM HEPES pH 7.5, n=3. The experiment is classed as biochemical. As for the experimental part:
page 11: Supporting Figure S6. Kinetic parameters for […] AspH (continues on the following page). Turnover numbers (kapp or k ) and Michaelis constants (Kapp or K ) of the […] AspH-catalysed hydroxylation of […] peptide by SPE- MS (SPE-MS parameters are given in Section 2 of the Supporting Information). […] HEPES (pH 7.5, 20° C). […] Data are shown as the mean average of three independent runs (n = 3; mean ± standard deviation, SD). Turnover numbers (kapp or k ) were calculated from the maximum velocities (vapp or v ) values obtained, cat cat max max assuming ideal active site availability as supported by a reported active site titration of wt AspH.[4] (a) Time course of the […] AspH for Fe(II) in the absence of LAA; (c) Kapp of […] AspH for Fe(II) in the absence m of LAA. (d) Time course of the […] AspH for Fe(II) in the presence of LAA; (f) Kapp of […] AspH for Fe(II) in the m presence of LAA. […] AspH variant-catalysed hydroxylation reaction of […] (k) hydroxylation rates used to determine kinetic parameters of […] AspH for […]. […] AspH for […] peptide substrate. […]

Experiment [5] relates to γ‐butyrobetaine hydroxylase. Also noted: method as in PMID 22730246. The conditions noted are these: reported value; cited from earlier work.
The next experiment concerns T3, wt His6-AspH315-758.
T3 construct: Conditions: 0.1 μM wt His6-AspH315-758 using; His6 (N); made in house
The experiment in a line: Steady-state kinetics of wt AspH by SPE-MS. The settings on record: wt AspH 0.1 μM, parameter for the varied (co)substrate (label), 25 mM HEPES pH 7.5, 50 mM NaCl, n=3. The experiment is classed as biochemical, human. The method, then:
Supporting Figure S4. Kinetic parameters for wt AspH (continues on the following page). Turnover numbers […]
ammonium iron(II) sulfate hexahydrate (FAS, (NH 4)2Fe(SO 4)2·6H2O), both in the presence and absence of L - ascorbic acid (LAA ) monitoring the AspH-catalysed hydroxylation of the hFX-EGFD186-124-4Ser peptide (Supporting Figure S2a) by SPE-MS (SPE-MS parameters are given in Section 2 of the Supporting Information).
Conditions: 0.1 μM wt His6-AspH315-758 using
C; note, to increase enzyme activity, 50 mM NaCl was added to the reaction buffer). Measurement times were normalized to the first sample injection analysed after the addition of the Enzyme Mixture to the Substrate Mixture […]
Data are shown as the mean average of three independent runs (n = 3; mean ± standard deviation, SD). Turnover numbers (kapp) were calculated from the […]
maximum velocities (vapp ) values obtained, assuming ideal active site availability as supported by a reported […]
active site titration of wt AspH.[4]
(a) Time course of the wt AspH-catalysed hydroxylation reaction of the hFX-EGFD186-124-4Ser peptide substrate […]
and 4.0 μM hFX-EGFD1 86-124-4Ser); (b) hydroxylation rates used to determine kinetic parameters of wt AspH for Fe(II) in the absence of LAA; ( c) Kapp of wt AspH for Fe(II) in the absence of LAA.
(d) Time course of the wt AspH-catalysed hydroxylation reaction of the hFX-EGFD186-124-4Ser peptide substrate in the presence of LAA for the shown Fe(II) concentrations (conditions: 0.1 μM wt His6-AspH315-758, 100 μM […]
parameters of wt AspH for Fe(II) in the presence of LAA; (f) Kapp of wt AspH for Fe(II) in the presence of LAA. […]
(g) Time course of the wt AspH-catalysed hydroxylation reaction of the hFX-EGFD186-124-4Ser peptide substrate […]
(1 picture or pasted object on this page, not shown here)

Where [6] appears, read: 0.1 μM H679A AspH, 4.0 μM hFX-EGFD1_86-124-4Ser, 110 μM 2OG, 4 μM Fe^II, SPE-MS, n=2, read-out: IC50.
[7] abbreviates: 0.1 μM H725A AspH, 4.0 μM hFX-EGFD1_86-124-4Ser, 215 μM 2OG, 10 μM Fe^II, SPE-MS, n=2, read-out: IC50.

As to `O=C(O)c1ccnc(C(=O)O)c1` [pyridine‐2,4‐dicarboxylic acid], the IC50 is 130 ± 10 nM on H679A His6-AspH315-758 [1] (read-out: IC50); 11200 ± 1400 nM at H725A His6-AspH315-758 [2] (read-out: IC50); 30 ± 10 nM in the experiment on wt AspH (wt AspH, 2 μM Fe^II, 3 μM 2OG); roughly 30 nM with wt AspH (wt AspH, at 3 μM 2OG); roughly 100 nM in the experiment with wt AspH (wt AspH, at 200 μM 2OG).

Take `CC(=O)[O-].CC(=O)[O-].[Zn+2]` [Zn(OAc)2]: the IC50 is 160 ± 10 nM on H679A His6-AspH315-758 [1] (setting [6]); 160 ± 10 nM at H725A His6-AspH315-758 [2] (setting [7]); 50 ± 10 nM in the experiment on wt AspH (wt AspH, 2 μM Fe^II, 3 μM 2OG).

As for `[Cl-].[Cl-].[Co+2]` [CoCl2], the IC50 is 1500 ± 200 nM at H679A His6-AspH315-758 [1] (n=2, read-out: IC50); 3000 ± 500 nM at H725A His6-AspH315-758 [2] (n=2, read-out: IC50); 400 ± 200 nM in the experiment with wt AspH.

Turning to `O=C(O)CCC(=O)C(=O)O` [2OG, 2‐oxoglutarate], at H679A His6-AspH315-758 [3] (with LAA (400 μM)), the Kmapp amounted to 109 ± 20 µM and the kcatapp was determined as 0.18 ± 0.01 s⁻¹. Besides, at H725A His6-AspH315-758 [4] (with LAA (400 μM)), the Kmapp is 211 ± 65 µM and the kcatapp worked out at 0.08 ± 0.01 s⁻¹. The “2OG Kmapp‐value” in experiment [5] was 150 to 470 µM.

As to `O=S(=O)([O-])[O-].[Ni+2]` [NiSO4], the half-maximal inhibitory concentration (IC50) on H679A His6-AspH315-758 [1] (read-out: IC50) was 2700 ± 400 nM; at H725A His6-AspH315-758 [2] (read-out: IC50), 1800 ± 400 nM; with wt AspH, 170 ± 80 nM.

For the molecule `O=C(O)CNC(=O)C(=O)O` [N‐oxalyl‐glycine (NOG), N‐oxalylglycine], the IC50 result on H679A His6-AspH315-758 [1] (0.1 μM H679A AspH, 4.0 μM hFX-EGFD1_86-124-4Ser, 110 μM 2OG, 4 μM Fe^II, SPE-MS, n=2) is “inactive”; against H679A His6-AspH315-758 [1] (0.1 μM H679A AspH, 4.0 μM hFX-EGFD1_86-124-4Ser, 110 μM 2OG, 4 μM Fe^II, SPE-MS, n=2, listed as NOG), “does not apparently inhibit”; at H725A His6-AspH315-758 [2] (0.1 μM H725A AspH, 4.0 μM hFX-EGFD1_86-124-4Ser, 215 μM 2OG, 10 μM Fe^II, SPE-MS, n=2), “inactive”; on H725A His6-AspH315-758 [2] (0.1 μM H725A AspH, 4.0 μM hFX-EGFD1_86-124-4Ser, 215 μM 2OG, 10 μM Fe^II, SPE-MS, n=2, listed as NOG), “does not apparently inhibit”; with wt AspH, 1100 ± 300 nM.

As to `[Cl][Mn][Cl]` [MnCl2], the IC50 at H679A His6-AspH315-758 [1] (setting [6]) is 23100 ± 8600 nM; on H725A His6-AspH315-758 [2] (setting [7]) it was greater than 40000 nM; in the experiment on wt AspH (wt AspH, 2 μM Fe^II, 3 μM 2OG), 5100 ± 1100 nM.

Take “ammonium iron(II) sulfate hexahydrate [Fe^II]”: the Kmapp in the experiment with wt His6-AspH315-758 (with LAA (100 μM)) worked out at 4.3 ± 1.6 µM; in the experiment with wt His6-AspH315-758 (without LAA), 7.2 ± 2.6 µM; on H679A His6-AspH315-758 [3] (with LAA (400 μM)), 2.7 ± 0.5 µM; on H679A His6-AspH315-758 [3] (without LAA), 4.4 ± 0.8 µM; at H725A His6-AspH315-758 [4] (with LAA (400 μM)), 8.1 ± 1.8 µM; at H725A His6-AspH315-758 [4] (without LAA), 12.3 ± 3.0 µM. The kcatapp with wt His6-AspH315-758 (with LAA (100 μM)) was determined as 0.27 ± 0.04 s⁻¹; in the experiment with wt His6-AspH315-758 (without LAA, hFX-EGFD1 peptide hydroxylation), 0.24 ± 0.04 s⁻¹; on H679A His6-AspH315-758 [3] (with LAA (400 μM)), 0.19 ± 0.01 s⁻¹; on H679A His6-AspH315-758 [3] (without LAA), 0.18 ± 0.01 s⁻¹; at H725A His6-AspH315-758 [4] (with LAA (400 μM)), 0.10 ± 0.01 s⁻¹; on H725A His6-AspH315-758 [4] (without LAA), 0.09 ± 0.01 s⁻¹.
